Reference: US10799442B2, “Compounds useful in the treatment and/or care of the skin, hair, nails, and/or mucous membranes” (LUBRIZOL ADVANCED MATERIALS, INC., priority 2015, dated 2020)

How the values were obtained:
SOX2 = experiment: Modulation of stem cell markers in HEKa, Real Time PCR Arrays (SOX2 mRNA); format: cell-based, Human; settings: 48 hours
Experimental: (§1) The candidate compound is evaluated for the modulation of several stem cell markers, those transcription factors regulated by miRNA145 (SOX2, OCT4, KLF4 and MYC). Gene expression profiles are analyzed by Real Time PCR Arrays using a 96-well panel for use with SYBR® Green (BioRad) to detect mRNA expression levels of stem cell markers plus three housekeeping genes, and five controls, in Human Epidermal Keratinocytes from adult (HEKa) (Cascade Biologics).
(§2) HEKa cells are seeded at 6.0×10^5 cells/well in 6-well plates and incubated in culture medium, Epilife with defined Growth Supplement (EDGS) (Cascade Biologics), for 24 hours at 37° C. in a water-saturated atmosphere of 95% air and 5% CO2. After 24 hours, the medium is removed and the cells are incubated with the synthetic peptide DD14024 at several concentrations in a culture medium. Cells are incubated with culture medium only and these provide the basal conditions. After 48 hours of treatment at 37° C. in a CO2 incubator, the cells are lysed directly in the wells, and RNA is purified following the protocol described on the RNeasy Mini kit (Qiagen) according to the manufacturer's protocol. After RNA elution, quantification and analysis of purity of RNA samples are performed with a biophotometer (Eppendorf). For each sample, 2 μg of high quality RNA is retrotranscribed with iScript Advanced (BioRad) in a final volume of 20 μl. The complete reaction mix is incubated in a thermal cycler (Eppendorf) at 42° C. for 30 minutes and the reaction is stopped at 85° C. for 5 minutes (?). Complementary DNA is amplified by qPCR in a real-time PCR thermocycler (BioRad) using SYBR Green Supermix (BioRad) in the 96-well panel for use with SYBR® Green (BioRad). SYBR Green binds to double-stranded DNA molecules and emits fluorescence which is quantified; the fluorescence intensity is proportional to the amount of the product in the PCR reaction. […] Fold change relative to the expression of the sample genes and reference genes is calculated using normalized expression (ΔΔ(Ct)) method using CFX Manager Software (BioRad). […]

KLF4 = experiment: Modulation of stem cell markers in HEKa, Real Time PCR Arrays (KLF4 mRNA); format: cell-based, Human; settings: 48 hours
Experimental: as §1, §2

MYC = experiment: Modulation of stem cell markers in HEKa, Real Time PCR Arrays (MYC mRNA); format: cell-based, Human; settings: 48 hours
Experimental: as §1, §2

p63 = experiment: Activation of the pool of epidermal stem cell in reconstructed human epidermal tissue (RHE), p63 immunohistochemistry; format: cell-based; settings: p63 immunofluorescence, 10 μg/ml, 24 hours
Experimental: Therefore, an increase in the expression of p63 would mean a higher regenerative potential compared to basal conditions.
The SkinEthic human tissue models (RHE) are removed from the agarose-nutrient solution in the multiwell plate immediately after arrival and are placed in a 6-well plate in which each well has previously be filled with SkinEthic Growth Medium (EPISKIN). After overnight incubation at 37° C., 5% CO2, the medium is removed. Then, the tissue models are incubated with the candidate peptide at 10 μg/ml at 37° C. and 5% CO2 for 24 hours. The tissue models are embedded in Tissue Teck OCT compound (Aname™). […]
The expression of p63 is evaluated by immunohistochemistry with a specific primary antibody and a fluorescently labelled secondary antibody. […] At the end of the incubation, slides are washed with PBS and are incubated with Alexa Fluor® 488 Goat anti-rabbit IgG (H+L) secondary antibody (Invitrogen, green fluorescence emission dye) 1 hour at room temperature in a dark humidified chamber. […]
Microscopical observations are performed with a Zeiss fluorescence microscope and photographs of each condition are taken with the associated camera. From each fluorescence image of p63, values of the product of Mean Intensity and Area are quantified and normalized by control (basal condition, treated with SkinEthic Growth Medium). […]

Ac-QEMRMQ-OH [DD14024, Ac-Gln-Glu-Met-Arg-Met-Gln-OH]
Fold induction respect to basal conditions (SOX2; 0.001 mg/ml): 1.62 ± 0.18 | Fold induction respect to basal conditions (SOX2; 0.005 mg/ml): 3.00 ± 0.55 | Fold induction respect to basal conditions (SOX2; 0.01 mg/ml): 2.81 ± 0.26 | Fold induction respect to basal conditions (KLF4; 0.001 mg/ml): 1.66 ± 0.18 | Fold induction respect to basal conditions (KLF4; 0.005 mg/ml): 2.42 ± 0.50 | Fold induction respect to basal conditions (KLF4; 0.01 mg/ml): 1.71 ± 0.40 | Fold induction respect to basal conditions (MYC; 0.001 mg/ml): 0.91 ± 0.05 | Fold induction respect to basal conditions (MYC; 0.005 mg/ml): 0.65 ± 0.08 | Fold induction respect to basal conditions (MYC; 0.01 mg/ml): 0.65 ± 0.07 | Fold induction respect to basal conditions (p63; 1 experiment): 1.63 ± 0.16 | Fold induction respect to basal conditions (p63; mean of four experiments): 2.11 ± 0.23
